Measurements published in patent publication US7629334B1, “Mesoprogrestins (progesterone receptor modulations) as a component of compositions for hormone replacement therapy (HRT)” (Bayer Schering Pharma Aktiengesellschaft, priority 1999, dated 2009).

Key:
pregnant rats = assay: Abortifacient activity in pregnant rats; format: in vivo, rat; conditions: treatment days 5-7 of pregnancy, autopsy day 9; * SAS, probit procedure
From the text: (§1) The guinea pig is considered as relevant model of human gestation and parturition (Elger W, Fähnrich M, Beier S, Quing S S, Chwalisz K (1987). Endometrial and myometrial effects of progesterone antagonists in pregnant guinea pigs. Am J Obstet Gynecol 157: 1065-1074; Elger W, Neef G, Beier S, Fähnrich M, Gründel M, Heermann J, Malmendier A, Laurent D, Puri C P, Singh M M, Hasan S H, Becker H (1992). Evaluation of antifertility activities of antigestagens in animal model. In: Puri C P and Van Look P F A (eds), Current Concepts in Fertility Regulation and Reproduction. Wiley Eastern Limited, New Delhi, pp. 303-328; Elger W, Faehnrich M, Beier S, Qing S S, Chwalisz K (1986). Mechanism of action of progesterone antagonists in pregnant guinea pigs. Contraception 6: 47-62; Elger W, Chwalisz K, Faehnrich M, Hasan S H, Laurent D, Beier S, Ottow E, Neef G, Garfield R E (1990). Studies on labor-conditioning and labor-inducing effects of antiprogesterones in animal model. In: Garfield R E (eds), Norwell, pp. 153-175.) The mechanism of abortion of antiprogestins in this species is the initiation of labor and finally the expulsion of the conceptus. Abortifacient effects in the rat during very early pregnancy reflect inhibitory effects on nidation rather than initiation of uterine contractions. Studies in the rat model lead to “overestimation” of the potential of antiprogestins to terminate pregnancy in humans. Conversely, in the guinea pig model, irrespective of the antiprogestin doses, there were high rates of ongoing pregnancies similar to the situation in humans (Elger et al., Current Concepts in Fertility Regulation and Reproduction cited above). Furthermore, in both humans and guinea pigs, there is a strong synergism between antiprogestins and prostaglandins with respect the induction of labor (see the articles cited above and Elger W, Beier S (1983). Prostaglandine und Antigestagene für den Schwangerschaftsabbruch (Prostaglandins and antigestagens for pregnancy termination). German Patent DE 3337450 12; Van Look P, Bygdeman M (1989). Antiprogestational steroids: a new dimension in human fertility regulation. Oxford reviews of reproductive medicine 11: 2-60).

pregnant guinea pigs = assay: Abortifacient (labor inducing) activity in pregnant guinea pigs; format: in vivo, guinea pig; conditions: for abortifacient activity ED50, guinea pig: treatment day 43-44 of pregnancy, autopsy day 50; for maximal abortion rate: up to 100 mg/kg/day
Experimental: In the guinea pig model which allows a good prediction of the effects in humans with respect to the abortifacient activity (Elger W, Beier S., Chwalisz K, Fähnrich M, Hasan S H, Henderson D, Neef G, Rohde R (1986): Studies on the mechanism of action of progesterone antagonists. J Steroid Biochem 25: 835-845) the mesoprogestins J 867, J 912, J 956, J 1042 lead up to 100 mg/kg/day to a maximal abortion rate of 20%.
as §1
Pregnant guinea pigs were treated on days 43 and 44 of pregnancy and observed until day 50 of gestation. For the effects of various treatments see table 1 and FIG. 2. It is typical for this model that expulsions occur with a delay of several days after treatment. It can be seen that Mesoprogestins have a much reduced abortifacient activity compared to RU486. […] The differences with respect to abortifacient activity seem qualitative ones. It is not possible to overcome the low abortifacient activity of a Mesoprogestin by the use of a higher dose.

[1] = target: T1, progesterone receptor (PR) (Oryctolagus cuniculus, UniProt P06186); assay: McPhail test, PR agonistic properties in estradiol-primed juvenile rabbits; format: in vivo, rabbit; conditions: for maximum effect, McPhail score: 4 days s.c. treatment, absence of progesterone, 0 = no transformation, 4 = complete transformation
T1 construct: from tissue; host or cells: endometrium of estradiol-primed juvenile rabbits, in vivo
T1 sequence (P06186 1-930): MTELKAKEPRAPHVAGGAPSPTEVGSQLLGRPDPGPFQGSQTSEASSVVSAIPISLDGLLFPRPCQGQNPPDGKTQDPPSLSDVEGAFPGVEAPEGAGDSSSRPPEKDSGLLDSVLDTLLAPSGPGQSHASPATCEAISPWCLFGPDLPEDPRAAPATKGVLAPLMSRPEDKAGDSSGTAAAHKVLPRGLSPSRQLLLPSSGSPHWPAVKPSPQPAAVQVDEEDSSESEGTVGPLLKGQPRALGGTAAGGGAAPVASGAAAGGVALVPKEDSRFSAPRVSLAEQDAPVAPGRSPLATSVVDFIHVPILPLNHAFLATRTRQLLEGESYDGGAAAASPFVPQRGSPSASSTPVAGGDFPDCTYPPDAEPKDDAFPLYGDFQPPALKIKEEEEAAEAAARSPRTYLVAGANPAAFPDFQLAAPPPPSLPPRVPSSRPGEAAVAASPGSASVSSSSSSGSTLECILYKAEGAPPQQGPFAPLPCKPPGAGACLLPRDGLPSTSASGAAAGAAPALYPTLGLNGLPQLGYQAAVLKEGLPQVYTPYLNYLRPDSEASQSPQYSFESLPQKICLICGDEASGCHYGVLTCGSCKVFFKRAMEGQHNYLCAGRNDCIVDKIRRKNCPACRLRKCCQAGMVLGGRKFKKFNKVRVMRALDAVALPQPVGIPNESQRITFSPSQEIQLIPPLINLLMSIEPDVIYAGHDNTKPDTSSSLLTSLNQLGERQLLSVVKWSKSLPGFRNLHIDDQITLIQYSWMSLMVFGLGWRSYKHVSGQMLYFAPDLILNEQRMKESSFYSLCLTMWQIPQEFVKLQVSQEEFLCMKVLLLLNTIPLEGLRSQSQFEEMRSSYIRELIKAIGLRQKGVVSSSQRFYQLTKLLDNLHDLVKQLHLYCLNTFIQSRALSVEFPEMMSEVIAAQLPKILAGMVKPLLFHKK
Experimental: In the classical bioassay, the McPhail test, assessing progestagenic and antiprogestagenic effects in rabbits (Selye H., Textbook of Endocrinology, 1947, pp. 345-346), progesterone produces a maximum McPhail score of 4 (by definition). […] The PR antagonistic and agonistic properties of mesoprogestins were assessed in estrogen-primed rabbits in the McPhail test according to Selye (Textbook of Endocrinology, 1947, pp. 345-346).

[2] = dose range 0.003-100 mg/rabbit s.c.

| SMILES | abortifacient activity ED50, Rat (pregnant rats) | abortifacient activity ED50, guinea pig (pregnant guinea pigs) | maximal abortion rate (pregnant guinea pigs) [%] | maximum effect, McPhail score [1] | progestagenic effect compared with maximum effect of progesterone [1, 2] | shape of dose response [1, 2] | dose inducing endometrial transformation ([1]; 4 days s.c.) [mg] |
| --- | --- | --- | --- | --- | --- | --- | --- |
| CN(C)c1ccc([C@H]2C[C@]3(C)[C@@H](CC[C@]3(O)CCCO)[C@@H]3CCC4=CC(=O)CCC4=C32)cc1 [Onapristone, onapristone, reference compound] | 1.71* mg/animal/day, s.c. | ca 3 mg/animal/day, s.c. | – | – | – | – | – |
| COCC1(O)CCC2C3CCC4=CC(=O)CCC4=C3C(c3ccc(C=NO)cc3)CC21C (stereo not drawn) [Compound J912, 4-[17β-Hydroxy-17α-(methoxymethyl)-3-oxoestra-4,9-dien-11β-yl]benzaldehyd-(1E)-oxim] | 0.36 mg/animal/day, s.c. | >100 mg/animal/day, s.c. | 20 | – | – | – | – |
| CCNC(=O)O/N=C/c1ccc([C@H]2C[C@@]3(C)[C@@H](CC[C@]3(COC)OC)[C@@H]3CCC4=CC(=O)CCC4=C32)cc1 [Compound J956, 4-[17β-Methoxy-17α-(methoxymethyl)-3-oxoestra-4,9-dien-11β-yl]benzaldehyd-(1E)-[O-(ethylamino)carbonyl]oxim] | 0.64* mg/animal/day, s.c. | 20 mg/animal/day, s.c. | 20 | 1.5 | Neither mesoprogestin tested (J 1042, J867, J956) reached the maximum effect of progesterone | biphasic response | – |
| COC[C@]1(OC)CC[C@H]2[C@@H]3CCC4=CC(=O)CCC4=C3[C@@H](c3ccc(/C=N/O)cc3)C[C@@]21C [Compound J867, 4-[17βMethoxy-17α-(methoxymethyl)-3-oxoestra-4,9-dien-11β-yl]benzaldehyd-(1E)-oxim] | 0.65* mg/animal/day, s.c. | >100 mg/animal/day, s.c. | 20 | – | Neither mesoprogestin tested (J 1042, J867, J956) reached the maximum effect of progesterone | – | – |
| CCSC(=O)O/N=C/c1ccc([C@H]2C[C@@]3(C)[C@@H](CC[C@]3(COC)OC)[C@@H]3CCC4=CC(=O)CCC4=C32)cc1 [Compound J1042, 4-[17β-Methoxy-17α-(methoxymethyl)-3-oxoestra-4,9-dien-11β-yl]benzaldehyd-(1E)-[O-(ethylthio)carbonyl]oxim] | >10 mg/animal/day, s.c. | >>100 mg/animal/day, s.c. | 20 | – | Neither mesoprogestin tested (J 1042, J867, J956) reached the maximum effect of progesterone | – | – |
| CC(=O)[C@H]1CC[C@H]2[C@@H]3CCC4=CC(=O)CC[C@]4(C)[C@H]3CC[C@]12C [Progesterone, progesterone] | – | – | – | ~4 | – | – | ≥ 0.1 |
| CC#C[C@]1(O)CC[C@H]2[C@@H]3CCC4=CC(=O)CCC4=C3[C@@H](c3ccc(N(C)C)cc3)C[C@@]21C [RU 486, reference compound] | 0.98* mg/animal/day, s.c. | 3.8 mg/animal/day, s.c. | – | – | – | – | – |
